Results published in PMC6704710, “Preclinical evaluation of 3D185, a novel potent inhibitor of FGFR1/2/3 and CSF-1R, in FGFR-dependent and macrophage-dominant cancer models” (Journal of Experimental & Clinical Cancer Research : CR, 2019).

What was measured:
Assay in all cases: Eurofins kinase panel
Assay type in all cases: biochemical
Conditions in all cases: read-out: Inhibition rate (%)
PKBγ(h) = biological target: T1, PKBγ(h) (Homo sapiens, UniProt Q9Y243)
T1 construct: purchased Eurofins (KinaseProfiler)

Src(1-530)(h) = biological target: T2, Src(1-530)(h) (Homo sapiens, UniProt P12931)
T2 construct: purchased Eurofins (KinaseProfiler)
T2 sequence (P12931 1-530 limits assumed): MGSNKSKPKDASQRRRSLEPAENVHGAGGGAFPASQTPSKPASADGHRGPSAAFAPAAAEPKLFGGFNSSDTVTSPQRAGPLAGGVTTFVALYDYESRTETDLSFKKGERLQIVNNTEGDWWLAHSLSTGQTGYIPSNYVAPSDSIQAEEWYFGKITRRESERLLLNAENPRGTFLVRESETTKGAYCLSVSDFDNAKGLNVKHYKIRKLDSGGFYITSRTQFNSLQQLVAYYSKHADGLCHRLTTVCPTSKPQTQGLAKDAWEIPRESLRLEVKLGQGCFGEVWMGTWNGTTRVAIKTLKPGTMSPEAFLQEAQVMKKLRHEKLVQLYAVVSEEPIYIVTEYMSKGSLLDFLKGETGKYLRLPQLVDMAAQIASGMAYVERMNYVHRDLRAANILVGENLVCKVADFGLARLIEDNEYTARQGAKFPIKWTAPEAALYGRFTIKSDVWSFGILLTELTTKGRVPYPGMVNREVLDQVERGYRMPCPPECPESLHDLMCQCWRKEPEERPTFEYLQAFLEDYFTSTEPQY

PAK5(h) = biological target: T3, PAK5(h) (Homo sapiens, UniProt Q9P286)
T3 construct: purchased Eurofins (KinaseProfiler)
T3 sequence (Q9P286 whole entry): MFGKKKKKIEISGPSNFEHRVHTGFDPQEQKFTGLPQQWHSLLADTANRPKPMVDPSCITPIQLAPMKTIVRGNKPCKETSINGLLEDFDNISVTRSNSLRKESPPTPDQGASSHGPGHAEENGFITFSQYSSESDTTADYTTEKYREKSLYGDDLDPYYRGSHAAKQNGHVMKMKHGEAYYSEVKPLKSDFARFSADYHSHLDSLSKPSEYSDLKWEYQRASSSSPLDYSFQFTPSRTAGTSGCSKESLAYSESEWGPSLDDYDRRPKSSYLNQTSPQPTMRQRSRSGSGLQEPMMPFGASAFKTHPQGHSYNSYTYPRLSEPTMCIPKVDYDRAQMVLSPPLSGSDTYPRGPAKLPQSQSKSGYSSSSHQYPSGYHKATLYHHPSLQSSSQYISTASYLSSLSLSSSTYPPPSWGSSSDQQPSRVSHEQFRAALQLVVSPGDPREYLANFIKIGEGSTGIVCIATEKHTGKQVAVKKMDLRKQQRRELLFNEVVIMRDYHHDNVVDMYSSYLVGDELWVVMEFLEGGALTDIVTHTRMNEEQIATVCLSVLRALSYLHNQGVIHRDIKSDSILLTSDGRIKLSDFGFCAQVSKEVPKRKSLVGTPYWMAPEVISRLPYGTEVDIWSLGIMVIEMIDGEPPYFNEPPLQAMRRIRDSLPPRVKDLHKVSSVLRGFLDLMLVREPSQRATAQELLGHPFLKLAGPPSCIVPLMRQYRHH

DYRK1B(h) = biological target: T4, DYRK1B(h) (Homo sapiens, UniProt Q9Y463)
T4 construct: purchased Eurofins (KinaseProfiler)
T4 sequence (Q9Y463 whole entry): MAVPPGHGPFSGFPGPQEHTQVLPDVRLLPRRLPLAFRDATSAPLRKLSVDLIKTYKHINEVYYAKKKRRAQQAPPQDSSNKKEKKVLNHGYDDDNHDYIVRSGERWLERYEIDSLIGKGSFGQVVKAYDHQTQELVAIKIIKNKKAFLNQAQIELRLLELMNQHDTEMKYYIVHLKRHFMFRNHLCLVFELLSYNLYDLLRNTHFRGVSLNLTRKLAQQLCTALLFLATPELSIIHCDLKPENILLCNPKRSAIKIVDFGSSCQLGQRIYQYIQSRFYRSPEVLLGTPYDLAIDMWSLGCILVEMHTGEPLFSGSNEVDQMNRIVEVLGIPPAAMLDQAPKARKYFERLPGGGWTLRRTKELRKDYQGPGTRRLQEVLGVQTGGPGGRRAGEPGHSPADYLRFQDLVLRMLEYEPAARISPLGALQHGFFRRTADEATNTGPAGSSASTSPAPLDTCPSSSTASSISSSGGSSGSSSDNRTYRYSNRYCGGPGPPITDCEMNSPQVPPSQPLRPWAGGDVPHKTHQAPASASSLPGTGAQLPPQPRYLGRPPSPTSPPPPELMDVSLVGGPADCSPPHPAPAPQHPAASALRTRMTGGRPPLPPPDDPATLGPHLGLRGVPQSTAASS

PKG1α(h) = biological target: T5, PKG1α(h) (Homo sapiens, UniProt Q13976)
T5 construct: purchased Eurofins (KinaseProfiler)
T5 sequence (Q13976 1-671): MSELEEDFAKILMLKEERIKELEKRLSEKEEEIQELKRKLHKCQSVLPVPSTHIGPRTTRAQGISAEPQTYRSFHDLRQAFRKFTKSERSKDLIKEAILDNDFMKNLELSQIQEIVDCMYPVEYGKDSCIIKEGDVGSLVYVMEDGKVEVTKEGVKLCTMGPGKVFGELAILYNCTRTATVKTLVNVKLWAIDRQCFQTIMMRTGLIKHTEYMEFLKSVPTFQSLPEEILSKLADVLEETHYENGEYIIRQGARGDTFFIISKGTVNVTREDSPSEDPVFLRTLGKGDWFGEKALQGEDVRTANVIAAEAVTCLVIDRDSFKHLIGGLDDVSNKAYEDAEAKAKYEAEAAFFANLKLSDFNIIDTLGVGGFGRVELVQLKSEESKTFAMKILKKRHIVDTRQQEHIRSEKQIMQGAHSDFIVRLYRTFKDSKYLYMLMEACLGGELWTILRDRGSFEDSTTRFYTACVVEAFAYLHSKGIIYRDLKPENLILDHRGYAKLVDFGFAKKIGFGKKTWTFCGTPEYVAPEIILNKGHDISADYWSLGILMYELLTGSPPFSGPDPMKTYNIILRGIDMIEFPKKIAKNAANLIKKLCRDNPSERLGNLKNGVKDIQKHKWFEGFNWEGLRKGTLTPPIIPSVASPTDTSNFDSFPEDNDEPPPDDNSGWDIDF

Plk1(h) = biological target: T6, Plk1(h) (Homo sapiens, UniProt P53350)
T6 construct: purchased Eurofins (KinaseProfiler)
T6 sequence (P53350 whole entry): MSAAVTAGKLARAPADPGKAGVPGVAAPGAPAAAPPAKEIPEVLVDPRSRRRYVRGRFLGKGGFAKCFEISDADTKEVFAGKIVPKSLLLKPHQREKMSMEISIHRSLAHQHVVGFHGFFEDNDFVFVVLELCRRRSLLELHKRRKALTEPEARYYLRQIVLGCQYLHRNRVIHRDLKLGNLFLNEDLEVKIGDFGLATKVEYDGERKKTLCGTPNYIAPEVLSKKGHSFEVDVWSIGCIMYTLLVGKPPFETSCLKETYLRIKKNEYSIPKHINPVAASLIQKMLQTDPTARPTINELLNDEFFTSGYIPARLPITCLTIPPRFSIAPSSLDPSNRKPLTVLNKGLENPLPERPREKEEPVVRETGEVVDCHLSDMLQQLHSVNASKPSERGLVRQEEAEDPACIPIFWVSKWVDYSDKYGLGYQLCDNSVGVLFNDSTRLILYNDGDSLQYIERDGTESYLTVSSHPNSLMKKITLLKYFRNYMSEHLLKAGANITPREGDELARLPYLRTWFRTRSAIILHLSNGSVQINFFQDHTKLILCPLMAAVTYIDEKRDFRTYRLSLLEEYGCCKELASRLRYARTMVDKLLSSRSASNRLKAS

NEK3(h) = biological target: T7, NEK3(h) (Homo sapiens, UniProt P51956)
T7 construct: purchased Eurofins (KinaseProfiler)
T7 sequence (P51956 1-506): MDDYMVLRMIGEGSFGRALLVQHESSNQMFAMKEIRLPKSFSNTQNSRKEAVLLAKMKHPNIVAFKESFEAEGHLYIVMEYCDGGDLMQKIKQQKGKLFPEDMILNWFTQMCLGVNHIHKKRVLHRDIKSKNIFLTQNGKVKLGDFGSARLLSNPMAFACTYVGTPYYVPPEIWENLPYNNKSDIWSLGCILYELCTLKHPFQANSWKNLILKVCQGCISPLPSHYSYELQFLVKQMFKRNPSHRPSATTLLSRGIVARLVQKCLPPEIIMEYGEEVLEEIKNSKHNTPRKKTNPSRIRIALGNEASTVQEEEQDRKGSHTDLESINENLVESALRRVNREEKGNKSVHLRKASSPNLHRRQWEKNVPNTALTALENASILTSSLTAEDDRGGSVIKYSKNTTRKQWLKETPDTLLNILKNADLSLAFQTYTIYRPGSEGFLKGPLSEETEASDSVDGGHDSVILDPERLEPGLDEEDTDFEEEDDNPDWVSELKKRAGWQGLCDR

TTBK1(h) = biological target: T8, TTBK1(h) (Homo sapiens, UniProt Q5TCY1)
T8 construct: purchased Eurofins (KinaseProfiler)

PKCγ(h) = biological target: T9, PKCγ(h) (Homo sapiens, UniProt P05129)
T9 construct: purchased Eurofins (KinaseProfiler)

EphA7(h) = biological target: T10, EphA7(h) (Homo sapiens, UniProt Q15375)
T10 construct: purchased Eurofins (KinaseProfiler)

MELK(h) = biological target: T11, MELK(h) (Homo sapiens, UniProt Q14680)
T11 construct: purchased Eurofins (KinaseProfiler)

JNK2α2(h) = biological target: T12, JNK2α2(h) (Homo sapiens, UniProt P45984)
T12 construct: purchased Eurofins (KinaseProfiler)

SAPK2b(h) = biological target: T13, SAPK2b(h) (Homo sapiens, UniProt Q15759)
T13 construct: purchased Eurofins (KinaseProfiler)
T13 sequence (Q15759 whole entry): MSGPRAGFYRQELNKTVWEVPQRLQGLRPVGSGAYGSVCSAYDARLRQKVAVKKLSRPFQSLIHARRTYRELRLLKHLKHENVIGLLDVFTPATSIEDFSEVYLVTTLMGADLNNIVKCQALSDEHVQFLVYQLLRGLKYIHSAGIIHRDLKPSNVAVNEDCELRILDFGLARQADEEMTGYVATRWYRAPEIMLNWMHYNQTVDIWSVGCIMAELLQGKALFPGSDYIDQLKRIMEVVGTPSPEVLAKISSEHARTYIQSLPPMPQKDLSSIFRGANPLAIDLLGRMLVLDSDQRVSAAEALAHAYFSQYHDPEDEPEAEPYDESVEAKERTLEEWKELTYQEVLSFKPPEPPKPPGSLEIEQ

CK1δ(h) = biological target: T14, CK1δ(h) (Homo sapiens, UniProt P48730)
T14 construct: purchased Eurofins (KinaseProfiler)
T14 sequence (P48730 whole entry): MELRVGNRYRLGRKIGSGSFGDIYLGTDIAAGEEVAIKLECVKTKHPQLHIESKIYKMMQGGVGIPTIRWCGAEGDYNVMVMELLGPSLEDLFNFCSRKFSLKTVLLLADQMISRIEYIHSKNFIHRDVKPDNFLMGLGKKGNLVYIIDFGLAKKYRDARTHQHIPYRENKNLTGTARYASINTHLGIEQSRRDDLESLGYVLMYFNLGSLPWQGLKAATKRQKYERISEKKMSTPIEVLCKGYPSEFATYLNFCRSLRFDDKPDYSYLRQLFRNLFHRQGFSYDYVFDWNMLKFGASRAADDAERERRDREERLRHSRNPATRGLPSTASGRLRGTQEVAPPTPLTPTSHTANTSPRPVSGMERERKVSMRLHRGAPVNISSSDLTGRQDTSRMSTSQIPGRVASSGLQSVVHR

JAK2(h) = biological target: T15, JAK2(h) (Homo sapiens, UniProt O60674)
T15 construct: purchased Eurofins (KinaseProfiler)

PDGFRα(V561D)(h) = biological target: T16, PDGFRα(V561D)(h) (Homo sapiens, UniProt P16234, V561D)
T16 construct: purchased Eurofins (KinaseProfiler)

Ret(V804M)(h) = biological target: T17, Ret(V804M)(h) (Homo sapiens, UniProt P07949, V804M)
T17 construct: purchased Eurofins (KinaseProfiler)
T17 sequence (P07949 29-1114 V804M): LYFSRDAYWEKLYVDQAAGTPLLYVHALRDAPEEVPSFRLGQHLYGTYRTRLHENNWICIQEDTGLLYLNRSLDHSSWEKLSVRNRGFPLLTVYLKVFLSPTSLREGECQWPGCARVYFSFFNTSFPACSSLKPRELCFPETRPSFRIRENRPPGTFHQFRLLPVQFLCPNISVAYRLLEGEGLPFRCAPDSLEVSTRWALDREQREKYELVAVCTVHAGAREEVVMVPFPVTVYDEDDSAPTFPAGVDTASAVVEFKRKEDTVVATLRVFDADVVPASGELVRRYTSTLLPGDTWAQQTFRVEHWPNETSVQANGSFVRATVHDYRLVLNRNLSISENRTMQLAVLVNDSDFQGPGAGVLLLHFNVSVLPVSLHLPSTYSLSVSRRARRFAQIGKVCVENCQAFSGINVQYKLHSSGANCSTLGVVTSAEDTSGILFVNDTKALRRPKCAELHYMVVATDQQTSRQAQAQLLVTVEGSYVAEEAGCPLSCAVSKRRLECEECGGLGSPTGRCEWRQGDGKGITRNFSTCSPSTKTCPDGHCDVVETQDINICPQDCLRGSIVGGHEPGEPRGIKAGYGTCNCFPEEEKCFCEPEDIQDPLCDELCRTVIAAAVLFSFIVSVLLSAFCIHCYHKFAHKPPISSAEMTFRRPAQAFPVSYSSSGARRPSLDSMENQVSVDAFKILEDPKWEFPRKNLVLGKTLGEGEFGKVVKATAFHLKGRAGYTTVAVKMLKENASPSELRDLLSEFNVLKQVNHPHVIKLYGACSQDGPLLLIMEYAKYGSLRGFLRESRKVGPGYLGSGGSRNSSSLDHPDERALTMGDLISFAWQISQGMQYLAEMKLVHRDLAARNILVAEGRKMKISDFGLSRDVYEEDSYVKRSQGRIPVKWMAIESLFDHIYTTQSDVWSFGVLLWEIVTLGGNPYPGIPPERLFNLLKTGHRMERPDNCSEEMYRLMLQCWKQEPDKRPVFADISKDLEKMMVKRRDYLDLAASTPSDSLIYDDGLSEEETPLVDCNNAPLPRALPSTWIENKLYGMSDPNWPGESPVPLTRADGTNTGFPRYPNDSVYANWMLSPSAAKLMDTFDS

COc1cc(OC)c(Cl)c(-c2ccc3c(NC(=O)c4ccc(N5CCNC(C)(C)C5)cc4)n[nH]c3n2)c1Cl [3D185]
inhibition at 0.01 µM (PKBγ(h); 10 nM): 4%
inhibition at 0.1 µM (PKBγ(h); 100 nM): 12%
inhibition at 1 µM (PKBγ(h); 1000 nM): 20%
inhibition at 0.01 µM (Src(1-530)(h); 10 nM): 4%
inhibition at 0.1 µM (Src(1-530)(h); 100 nM): 30%
inhibition at 1 µM (Src(1-530)(h); 1000 nM): 82%
inhibition at 0.01 µM (PAK5(h); 10 nM): -11%
inhibition at 0.1 µM (PAK5(h); 100 nM): -2%
inhibition at 1 µM (PAK5(h); 1000 nM): 5%
inhibition at 0.01 µM (DYRK1B(h); 10 nM): 12%
inhibition at 0.1 µM (DYRK1B(h); 100 nM): 3%
inhibition at 1 µM (DYRK1B(h); 1000 nM): 3%
inhibition at 0.01 µM (PKG1α(h); 10 nM): -1%
inhibition at 0.1 µM (PKG1α(h); 100 nM): -2%
inhibition at 1 µM (PKG1α(h); 1000 nM): 1%
inhibition at 0.01 µM (Plk1(h); 10 nM): -6%
inhibition at 0.1 µM (Plk1(h); 100 nM): 2%
inhibition at 1 µM (Plk1(h); 1000 nM): -4%
inhibition at 0.01 µM (NEK3(h); 10 nM): 10%
inhibition at 0.1 µM (NEK3(h); 100 nM): 13%
inhibition at 1 µM (NEK3(h); 1000 nM): 5%
inhibition at 0.01 µM (TTBK1(h); 10 nM): 2%
inhibition at 0.1 µM (TTBK1(h); 100 nM): -7%
inhibition at 1 µM (TTBK1(h); 1000 nM): -6%
inhibition at 0.01 µM (PKCγ(h); 10 nM): -4%
inhibition at 0.1 µM (PKCγ(h); 100 nM): -8%
inhibition at 1 µM (PKCγ(h); 1000 nM): -1%
inhibition at 0.01 µM (EphA7(h); 10 nM): 0%
inhibition at 0.1 µM (EphA7(h); 100 nM): 8%
inhibition at 1 µM (EphA7(h); 1000 nM): 21%
inhibition at 0.01 µM (MELK(h); 10 nM): -1%
inhibition at 0.1 µM (MELK(h); 100 nM): 8%
inhibition at 1 µM (MELK(h); 1000 nM): 14%
inhibition at 0.01 µM (JNK2α2(h); 10 nM): 3%
inhibition at 0.1 µM (JNK2α2(h); 100 nM): 4%
inhibition at 1 µM (JNK2α2(h); 1000 nM): 1%
inhibition at 0.01 µM (SAPK2b(h); 10 nM): 3%
inhibition at 0.1 µM (SAPK2b(h); 100 nM): 14%
inhibition at 1 µM (SAPK2b(h); 1000 nM): 20%
inhibition at 0.01 µM (CK1δ(h); 10 nM): -10%
inhibition at 0.1 µM (CK1δ(h); 100 nM): 0%
inhibition at 1 µM (CK1δ(h); 1000 nM): 6%
inhibition at 0.01 µM (JAK2(h); 10 nM): -14%
inhibition at 0.1 µM (JAK2(h); 100 nM): 5%
inhibition at 1 µM (JAK2(h); 1000 nM): 6%
inhibition at 0.01 µM (PDGFRα(V561D)(h); 10 nM): 5%
inhibition at 0.1 µM (PDGFRα(V561D)(h); 100 nM): 23%
inhibition at 1 µM (PDGFRα(V561D)(h); 1000 nM): 57%
inhibition at 0.01 µM (Ret(V804M)(h); 10 nM): -3%
inhibition at 0.1 µM (Ret(V804M)(h); 100 nM): -2%
inhibition at 1 µM (Ret(V804M)(h); 1000 nM): 56%
